From article PMC8831520, “Small molecule SWELL1 complex induction improves glycemic control and nonalcoholic fatty liver disease in murine Type 2 diabetes” (Nature Communications, 2022)

What was measured:
[1] = Tolerability of chronic i.p. dosing; assay type: in vivo, mouse; conditions: daily i.p. injections for up to 8 weeks
Protocol: All compounds were dissolved in Kolliphor® EL (Sigma, #C5135).

[2] = tested on: primary hepatocytes; assay: Signaling in cultured primary hepatocytes; assay type: cell-based, mouse; conditions: 10 µM, 24–48 h, SWELL1-dependent
Protocol: For primary hepatocytes isolation, the SWELL1^fl/fl (Wildtype, WT) and Albumin-Cre/SWELL1^fl/fl (Knockout, KO) mice were anesthetized using isoflurane. A 24 G i.v. catheter was inserted into the portal vein and a buffer containing HBSS (Ca^2+ and Mg^2+ free) + 0.5 mM EGTA was perfused through the liver at a rate of 4.5 mL/min. The portal vein was quickly cut after the perfusion began. The liver was perfused until it was free from blood and subsequently perfused with DMEM + 1x Pyruvate+ Type IV Collagenase (Sigma C5138) (1 mg/mL) for 4–5 min until the liver was soft. The liver was excised and put into 10 mL DMEM + collagenase solution. The tissue was broken down by agitation and passed through 25- and 10-mL pipette until the cells were free. The cells were suspended in 15 mL cold DMEM + 10% FBS + 1% P/S (penicillin and streptomycin). The cells were then passed through a 100 µm filter and spun at 50×g for 2 min. The supernatant was discarded and the cell pellet was washed with 25 mL of DMEM + 10% FBS + 1% P/S media three times. Cells were checked for viability by diluting 1:2 with Trypan blue and batches with >80% viability were used. The hepatocytes were then plated on Type I Collagen (75 µg/mL) coated dish with a density of 500,000 cells per well (6-well) in DMEM + 10% FBS + 1% P/S media.

[3] = molecular target: T1, R103E-SWELL1 expressing HEK-293 cells (R103E O/E) (Homo sapiens, UniProt Q8IWT6, R103E); assay: ICl,SWELL inhibition in SWELL1-R103E overexpressing cells, patch-clamp; assay type: cell-based
T1 construct: P2A:EGFP (C); host or cells: HEK-293, Lipofectamine 2000, co-transfected with CMV-Cre; EGFP+ cells recorded
Description: See also Fig. 6 for a schematic representation. […] For SWELL1-R103E overexpression experiments, HEK-293 cells were transfected with either control Cre plasmid (CMV-Cre, McDonnell Genome Institute in Washington University in St. Louis) or Cre plus R103E-GFP (CAG-LoxP-stop-LoxP-SWELL1-R103E/3XFlag:P2A:EGFP, Vector Biolabs) plasmid using Lipofectamine 2000 as per the manufacturer’s protocol. SWELL1-R103E expressing HEK-293 cells were identified by EGFP + fluorescence.

T1 sequence (Q8IWT6 whole entry R103E): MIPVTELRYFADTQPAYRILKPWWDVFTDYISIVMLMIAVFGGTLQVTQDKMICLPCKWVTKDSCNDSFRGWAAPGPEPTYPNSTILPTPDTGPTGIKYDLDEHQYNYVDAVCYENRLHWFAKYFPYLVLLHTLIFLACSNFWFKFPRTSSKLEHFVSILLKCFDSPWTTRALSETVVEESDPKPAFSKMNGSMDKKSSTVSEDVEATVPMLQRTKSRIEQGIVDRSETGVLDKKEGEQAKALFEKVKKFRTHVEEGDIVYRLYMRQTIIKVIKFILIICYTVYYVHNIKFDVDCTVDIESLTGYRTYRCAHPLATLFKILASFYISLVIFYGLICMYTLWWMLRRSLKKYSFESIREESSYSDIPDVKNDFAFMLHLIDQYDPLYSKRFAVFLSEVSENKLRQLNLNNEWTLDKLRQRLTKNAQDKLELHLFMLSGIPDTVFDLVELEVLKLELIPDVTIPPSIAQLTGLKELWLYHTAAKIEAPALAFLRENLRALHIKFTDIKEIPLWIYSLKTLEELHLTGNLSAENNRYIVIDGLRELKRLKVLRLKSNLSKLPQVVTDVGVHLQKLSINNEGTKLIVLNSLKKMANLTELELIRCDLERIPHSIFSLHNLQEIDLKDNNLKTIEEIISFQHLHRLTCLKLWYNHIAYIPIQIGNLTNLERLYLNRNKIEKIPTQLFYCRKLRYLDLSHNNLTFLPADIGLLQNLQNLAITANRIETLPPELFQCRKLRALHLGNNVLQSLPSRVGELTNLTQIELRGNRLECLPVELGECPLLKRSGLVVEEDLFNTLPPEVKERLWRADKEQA

For `CCCCC1(C2CCCC2)Cc2cc(OCCCC(=O)O)c(Cl)c(Cl)c2C1=O` (stereo not drawn) [SN-401, 4-((2-butyl-6,7-dichloro-2-cyclopentyl-1-oxo-2,3-dihydro-1H-inden-5-yl)oxy)butanoic acid], the tolerability [1] was “no overt signs of toxicity”, the “pAS160 in primary hepatocytes” value [2] was “robustly induces” and the IC50 [3] was 6 µM.
